Test [1] deals with Tyrosine-protein kinase Lyn (Homo sapiens) (UniProt P07948). The experiment in a line: Inhibition of LYN (unknown origin) at 0.1 uM relative to control.
For test [2], the target named is Tyrosine-protein kinase Fyn (Homo sapiens, UniProt P06241). Briefly: Inhibition of full-length human recombinant Fyn using Poly(Glu4, Tyr1) as substrate measured for 60 mins by Kinase-Glo reagent based analysis.
The target of test [3] is Proto-oncogene tyrosine-protein kinase Src (Homo sapiens, UniProt P12931). The experiment in a line: Binding affinity to SRC (unknown origin) assessed as inhibition constant.

From ChEMBL document CHEMBL5614368, “Fyn, Blk, and Lyn kinase inhibitors: A mini-review on medicinal attributes, research progress, and future insights” (Bioorg Med Chem Lett, 2024) come the findings set out here.

Chain of Tyrosine-protein kinase Fyn (P06241 whole entry): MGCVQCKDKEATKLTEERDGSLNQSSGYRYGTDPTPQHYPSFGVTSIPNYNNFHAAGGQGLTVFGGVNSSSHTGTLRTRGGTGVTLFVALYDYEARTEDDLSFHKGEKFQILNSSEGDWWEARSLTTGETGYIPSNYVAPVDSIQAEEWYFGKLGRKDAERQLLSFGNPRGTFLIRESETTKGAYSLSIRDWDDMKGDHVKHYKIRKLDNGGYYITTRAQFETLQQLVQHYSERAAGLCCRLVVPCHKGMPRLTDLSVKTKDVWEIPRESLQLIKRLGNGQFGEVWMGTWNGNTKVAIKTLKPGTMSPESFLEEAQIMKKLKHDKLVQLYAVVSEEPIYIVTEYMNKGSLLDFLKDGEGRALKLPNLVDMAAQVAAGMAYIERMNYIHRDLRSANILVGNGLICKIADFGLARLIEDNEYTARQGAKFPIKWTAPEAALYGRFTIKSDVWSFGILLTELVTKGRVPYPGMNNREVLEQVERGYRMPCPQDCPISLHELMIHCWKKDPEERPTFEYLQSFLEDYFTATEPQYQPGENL
Chain of Proto-oncogene tyrosine-protein kinase Src (P12931 2-536 limits assumed): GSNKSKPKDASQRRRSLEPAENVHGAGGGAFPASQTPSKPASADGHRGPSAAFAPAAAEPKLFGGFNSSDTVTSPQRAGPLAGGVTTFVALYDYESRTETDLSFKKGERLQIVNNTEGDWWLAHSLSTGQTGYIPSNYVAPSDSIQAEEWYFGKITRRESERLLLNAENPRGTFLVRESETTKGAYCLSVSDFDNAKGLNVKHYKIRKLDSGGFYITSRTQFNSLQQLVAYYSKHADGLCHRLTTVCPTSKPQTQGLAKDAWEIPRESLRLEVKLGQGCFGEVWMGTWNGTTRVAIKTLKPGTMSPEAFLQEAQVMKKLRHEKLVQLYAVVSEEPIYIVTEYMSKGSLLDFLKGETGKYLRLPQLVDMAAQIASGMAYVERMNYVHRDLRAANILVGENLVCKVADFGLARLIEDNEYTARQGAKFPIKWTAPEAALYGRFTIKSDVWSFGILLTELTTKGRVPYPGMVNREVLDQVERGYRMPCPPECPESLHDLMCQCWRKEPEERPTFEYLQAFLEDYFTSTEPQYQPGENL
Chain of Tyrosine-protein kinase Lyn (Homo sapiens) (P07948 2-512 limits assumed): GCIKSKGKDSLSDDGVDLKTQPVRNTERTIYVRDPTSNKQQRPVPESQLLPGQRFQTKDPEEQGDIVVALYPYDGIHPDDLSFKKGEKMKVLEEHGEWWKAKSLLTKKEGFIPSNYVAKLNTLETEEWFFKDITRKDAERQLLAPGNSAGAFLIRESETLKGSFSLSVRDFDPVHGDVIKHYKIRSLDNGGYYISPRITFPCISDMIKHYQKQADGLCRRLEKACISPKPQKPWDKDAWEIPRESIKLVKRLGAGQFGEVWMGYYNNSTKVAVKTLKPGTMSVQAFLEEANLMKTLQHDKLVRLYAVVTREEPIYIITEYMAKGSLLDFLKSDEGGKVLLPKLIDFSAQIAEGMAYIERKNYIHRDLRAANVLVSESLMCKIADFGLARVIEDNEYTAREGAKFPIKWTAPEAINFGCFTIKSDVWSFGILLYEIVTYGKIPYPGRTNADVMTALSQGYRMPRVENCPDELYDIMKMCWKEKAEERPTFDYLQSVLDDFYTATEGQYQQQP

For `CSc1ccc(C(=O)NCc2cc3c(=O)[nH]c(N)nc3[nH]2)cc1`, the inhibition (usually how much of the control response was suppressed) in test [1] was 42%. Take `Cc1nnc(NC2CCCCC2)nc1O`: the IC50 (as a rule, the concentration that gives 50% inhibition) in test [2] came to 760 nM. On the same count and under the same terms, for `Cc1n[nH]c(Nc2ccc3c(c2)OCO3)nc1=O` the value was 4800 nM. As for `Oc1ccc(F)c(Nc2nc(SCCN3CCOCC3)nc3c2cnn3CC(Cl)c2ccccc2)c1` (centres undefined), the Ki – broadly, the dissociation constant of the complex between target and ligand, obtained from inhibition or displacement – in test [3] turned out to be 170 nM.
